# Test results from ChEMBL document CHEMBL3804780, “Protective effect of novel substituted nicotine hydrazide analogues against hypoxic brain injury in neonatal rats via inhibition of caspase” (Bioorg Med Chem Lett, 2016).
# Active and inactive are the calls of the source. The calls are words filed in the database; no cut-off is given here.
# How the values were obtained:
# [1] = target: T1, Caspase-3 (Homo sapiens, UniProt P42574); test: Inhibition of His-tagged human recombinant caspase 3 expressed in Escherichia coli using acetyl-Asp-Glu-Val-Asp-7- amido-4-methylcoumarin (Ac-DEVD-AMC) as substrate by fluorimetric assay
# T1 sequence (P42574 whole entry): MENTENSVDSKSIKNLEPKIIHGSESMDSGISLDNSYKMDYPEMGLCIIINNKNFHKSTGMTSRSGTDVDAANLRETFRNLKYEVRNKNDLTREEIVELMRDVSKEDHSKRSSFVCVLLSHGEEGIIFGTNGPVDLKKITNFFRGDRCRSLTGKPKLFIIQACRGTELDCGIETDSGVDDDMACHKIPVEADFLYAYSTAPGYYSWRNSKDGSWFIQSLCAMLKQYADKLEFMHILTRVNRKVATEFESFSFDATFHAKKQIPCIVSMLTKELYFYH
# [2] = target: T2, Caspase-7 (Homo sapiens, UniProt P55210); test: Inhibition of His-tagged human recombinant caspase 7 expressed in Escherichia coli using acetyl-Asp-Glu-Val-Asp-7- amido-4-methylcoumarin (Ac-DEVD-AMC) as substrate by fluorimetric assay
# T2 sequence (P55210 whole entry): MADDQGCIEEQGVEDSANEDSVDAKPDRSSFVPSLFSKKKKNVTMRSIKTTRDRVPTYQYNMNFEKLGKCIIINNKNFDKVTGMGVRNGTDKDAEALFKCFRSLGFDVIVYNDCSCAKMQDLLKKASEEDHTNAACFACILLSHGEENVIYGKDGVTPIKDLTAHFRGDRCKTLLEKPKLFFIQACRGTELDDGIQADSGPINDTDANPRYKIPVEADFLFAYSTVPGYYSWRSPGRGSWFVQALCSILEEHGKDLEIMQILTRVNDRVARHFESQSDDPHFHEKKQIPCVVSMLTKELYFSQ
# [3] = test system: Rattus norvegicus; test: Neuroprotective activity in hypoxic-ischemia-induced neonatal Sprague-Dawley rat brain assessed as reduction brain infarction at 10 mg/kg, ip administered 15 mins prior to examination by microscopic analysis; assay type: functional, organism-based
# [4] = test system: Rattus norvegicus; test: Neuroprotective activity in hypoxic-ischemia-induced neonatal Sprague-Dawley rat brain assessed as reduction brain infarction at 20 mg/kg, ip administered 15 mins prior to examination by microscopic analysis; assay type: functional, organism-based
# [5] = test system: Rattus norvegicus; test: Neuroprotective activity in hypoxic-ischemic-induced neonatal Sprague-Dawley rat brain assessed as reduction brain infarction at 30 mg/kg, ip administered 15 mins prior to examination by microscopic analysis; assay type: functional, organism-based
# [6] = test system: Rattus norvegicus; test: Neuroprotective activity in hypoxic-ischemic neonatal Sprague-Dawley rat brain assessed as distribution of neurons in cortex at 30 mg/kg, ip administered 15 mins prior to examination measured after 48 hrs by hematoxylin/eosin staining based microscopic analysis; assay type: functional, organism-based
# [7] = test system: Rattus norvegicus; test: Neuroprotective activity in hypoxic-ischemic Sprague-Dawley rat brain assessed as regular shape of nucleus at 30 mg/kg, ip administered 15 mins prior to examination measured after 48 hrs by transmission electron microscopic analysis; assay type: functional, organism-based
# [8] = test system: Rattus norvegicus; test: Neuroprotective activity in hypoxic-ischemic Sprague-Dawley rat brain assessed as reduction in disruption of cell organelles at 30 mg/kg, ip administered 15 mins prior to examination measured after 48 hrs by transmission electron microscopic analysis; assay type: functional, organism-based
# [9] = test system: Rattus norvegicus; test: Neuroprotective activity in hypoxic-ischemic ip dosed neonatal Sprague-Dawley rat brain assessed as decrease in MDA levels administered 15 mins prior to examination measured after 48 hrs by thiobarbituric acid method; assay type: functional, organism-based
# [10] = test system: Rattus norvegicus; test: Neuroprotective activity in hypoxic-ischemic ip dosed neonatal Sprague-Dawley rat brain assessed as increase in SOD levels administered 15 mins prior to examination measured after 48 hrs by microplate reader based method; assay type: functional, organism-based
# [11] = test system: Rattus norvegicus; test: Neuroprotective activity in hypoxic-ischemic ip dosed neonatal Sprague-Dawley rat brain assessed as increase in GSH-Px levels administered 15 mins prior to examination measured after 48 hrs by microplate reader based method; assay type: functional, organism-based
# [12] = test system: Rattus norvegicus; test: Neuroprotective activity in hypoxic-ischemic ip dosed neonatal Sprague-Dawley rat brain assessed as increase in CAT levels administered 15 mins prior to examination measured after 48 hrs by microplate reader based method; assay type: functional, organism-based
# [13] = test system: Rattus norvegicus; test: Neuroprotective activity in hypoxic-ischemic ip dosed neonatal Sprague-Dawley rat brain assessed as increase in T-AOC levels administered 15 mins prior to examination measured after 48 hrs by microplate reader based method; assay type: functional, organism-based
# [14] = test system: Rattus norvegicus; test: Neuroprotective activity in hypoxic-ischemic neonatal Sprague-Dawley rat brain assessed as reduction in interstitial edema at 30 mg/kg, ip administered 15 mins prior to examination measured after 48 hrs by hematoxylin/eosin staining based microscopic analysis; assay type: functional, organism-based
# [15] = organism: Rattus norvegicus; conditions: Sprague-Dawley, Brain, 30 mg/kg
# Description: Neuroprotective activity in hypoxic-ischemic neonatal Sprague-Dawley rat brain assessed as inhibition of elevated caspase 3 expression levels at 30 mg/kg, ip administered 15 mins prior to examination measured after 48 hrs by Western blot analysis
SMILES,IC50 [1] [µM],IC50 [2] [µM],further results
Cc1ccc(-c2ccc(C(=O)N/N=C3\C(=O)N(C)c4ccccc43)c(C)n2)cc1,375,,
Cc1ccccc1-c1ccc(C(=O)N/N=C2\C(=O)N(C)c3ccccc32)c(C)n1,351,,
Cc1nc(-c2cccc([N+](=O)[O-])c2)ccc1C(=O)N/N=C1\C(=O)N(C)c2ccccc21,278,,
COc1ccc(-c2ccc(C(=O)N/N=C3\C(=O)N(C)c4ccccc43)c(C)n2)cc1OC,599,> 200,
Cc1cccc(-c2ccc(C(=O)N/N=C3\C(=O)N(C)c4ccccc43)c(C)n2)c1,310,,
Cc1nc(-c2ccccc2Br)ccc1C(=O)N/N=C1\C(=O)N(C)c2ccccc21,132,,
COc1ccc(-c2ccc(C(=O)N/N=C3\C(=O)N(C)c4ccccc43)c(C)n2)cc1,487,> 200,
COc1ccccc1-c1ccc(C(=O)N/N=C2\C(=O)N(C)c3ccccc32)c(C)n1,552,> 200,
Cc1nc(-c2cccc(Br)c2)ccc1C(=O)N/N=C1\C(=O)N(C)c2ccccc21,130,,
Cc1nc(-c2ccccc2[N+](=O)[O-])ccc1C(=O)N/N=C1\C(=O)N(C)c2ccccc21,297,> 200,
CC(=O)N[C@@H](CC(=O)O)C(=O)N[C@@H](CCC(=O)O)C(=O)N[C@H](C(=O)N[C@H](C=O)CC(=O)O)C(C)C,,0.0604,
COc1cc(-c2ccc(C(=O)N/N=C3\C(=O)N(C)c4ccccc43)c(C)n2)cc(OC)c1OC,674,,
Cc1nc(-c2ccc(Br)cc2)ccc1C(=O)N/N=C1\C(=O)N(C)c2ccccc21,122,,
Cc1nc(-c2cccc(Cl)c2)ccc1C(=O)N/N=C1\C(=O)N(C)c2ccccc21,,> 200,
Cc1nc(-c2ccc(F)cc2)ccc1C(=O)N/N=C1\C(=O)N(C)c2ccccc21,,> 200,Activity [3]: Active; Activity [4]: Active; Activity [5]: Active; Activity [6]: Active; Activity [7]: Active; Activity [8]: Active; Activity [9]: Active; Activity [10]: Dose-dependent effect; Activity [11]: Dose-dependent effect; Activity [12]: Dose-dependent effect; Activity [13]: Dose-dependent effect; Activity [14]: Active; inhibition [15]: Active
Cc1nc(-c2ccc([N+](=O)[O-])cc2)ccc1C(=O)N/N=C1\C(=O)N(C)c2ccccc21,202,,
Cc1nc(-c2ccccc2)ccc1C(=O)N/N=C1\C(=O)N(C)c2ccccc21,456,,
COc1cccc(-c2ccc(C(=O)N/N=C3\C(=O)N(C)c4ccccc43)c(C)n2)c1,547,> 200,
